In series [1] the test system is colon cancer cell line HCT-116. The experiment in a line: PUMA-induced apoptosis inhibition in HCT-116.
Description: (§2) PUMAi was added to cells at 25 uM at the same time as CPT.
(§3) A minimum of 300 cells per treatment were analyzed in triplicate.
The target in another series is T1, BIM/MCL-1 (Homo sapiens, UniProt O43521).
T1 construct: expressed in transfected cells; host or cells: 293 cells; lysates used
Kind of series: Immunoprecipitation of HA-BIM / V5-Mcl-1 from 293 lysates. Type of series: binding. Particulars: 25 uM, 15 min, anti-HA immunoprecipitation, western blot. Here is the method:
(§1) (FIG. 10A) Structure of the PUMA inhibitor lead compound (PUMAi). (FIG. 10B) Lysates of 293 cells transfected with individual plasmids for 24 hours were mixed in the indicated combinations. Lysates were incubated with vehicle or PUMA inhibitor (PUMAi, 25 μM) for 15 min before immunoprecipitation with an anti-HA antibody. The HA-bound proteins and input were analyzed by western blotting. (FIG. 10C) Lysates of 293 cells transfected with individual plasmids for 24 h were mixed in the indicated combinations. Lysates were incubated with vehicle or PUMA Inhibitor (PUMAi, 25 μM) for 15 min before immunoprecipitation with an anti-HA antibody. The HA-bound proteins and input were analyzed by western blotting. (FIG. 10D) Indicated colon cancer cell lines were treated with camptothecin (CPT, 500 nM) for 24 h. HCT 116 cells and PUMA KO HCT 116 cells have WT p53, others have no (KO) or mutant p53. Apoptosis was measured by nuclear fragmentation assay. Values are mean+SEM; n=3 independent experiments. (FIG. 10E) Cells were treated as in D for 24 h and analyzed by western blotting. Representative results are shown, and similar results were obtained in at least three independent experiments. […]
For orientation: Immunoblotting shows a protein as a band on a membrane.

The subject of series [2] is colon cancer cell line DLD1. Kind of series: PUMA-induced apoptosis inhibition in DLD1.
Description: as §2, §3
A short description of series [3]: PUMAi distribution in intestinal mucosa and plasma (LC-MS/MS). Format: in vivo, mouse. Particulars: for PUMAi concentration in intestinal mucosa compared to -1.5 hours: 10 mg/kg i.p. As for the experimental part: Acetonitrile and water (all HPLC grade) were purchased from Fisher Scientific. Formic acid and trifluoroacetic acid was purchased from Sigma-Aldrich. Stock solutions of PUMAi and [D5]-PUMAi internal standard were prepared at 1 mg/mL in DMSO, diluted 10 times in acetonitrile, and then stored at −80° C. On the day of the assay, the solution was serially diluted (in 10-fold steps) in acetonitrile to obtain the lower calibration working solutions of 0.01 and 0.001 mg/mL. These calibration working solutions were diluted in mouse plasma (Lampire Biological Laboratories, Inc.) to produce the following analyte concentrations: 10, 30, 50, 100, 300, 500, 1000, 3000 ng/mL. For each calibration series, zero (containing 10 ng/mL of internal standard) and blank samples were also prepared from 50 μL of Lampire plasma. Quality control (QC) stock solutions were diluted in Lampire mouse plasma to produce the following QC samples: QC Low (QCL) 20 ng/mL; QC Mid (QCM) 200 ng/mL, and QC High (QCH) 2500 ng/mL.
To extract PUMAi, we added 10 μL of internal standard solution (1000 ng/mL [D5]-PUMAi in acetonitrile) to 50 μL of plasma sample in a micro centrifuge tube. […]
The mass spectrometer was operated in ESI positive mode using MRM detection. […] The mass transitions monitored were m/z 331>143 for PUMAi and 345>157 for the internal standard.
To assess recovery from plasma, we compared areas from control plasma spiked with 1000 ng/mL of PUMAi, prepared as described above, with the areas obtained with a neat solution of PUMAi in water. Intestinal mucosa was analyzed after dilution in control plasma to within the calibration range. […]
PUMAi {1-[4-(2-hydroxyethyl)-1-piperazinyl]-3-(2-naphthyloxy)-2-propanol dihydrochloride} was synthesized by ChemBridge, with a purity of 95% by HPLC-MS, and an internal isotopic standard PUMAih7 (D5, five internal hydrogens replaced by deuterium) was synthesized by Alsachim, with purity approaching 100% by HPLC-MS. […] Detailed methods on LC-MS/MS (liquid chromatography-tandem MS) quantitation of PUMAi are found in Supplementary Materials and Methods.

In a further series the target is T2, PUMA/BCL-xL (Homo sapiens, UniProt Q9BXH1).
T2 construct: expressed in transfected cells; host or cells: HEK293 (human embryonic kidney 293) cells, Lipofectamine 2000; lysates used
T2 sequence (Q9BXH1 1-193): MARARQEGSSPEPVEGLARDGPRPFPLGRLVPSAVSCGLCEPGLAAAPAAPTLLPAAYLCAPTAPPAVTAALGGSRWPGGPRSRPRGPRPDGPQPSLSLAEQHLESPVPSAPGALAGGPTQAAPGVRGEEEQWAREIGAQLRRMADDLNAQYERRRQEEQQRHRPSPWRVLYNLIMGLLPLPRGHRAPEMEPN
The experiment in a line: Immunoprecipitation of HA-PUMA / V5-Bcl-xL from 293 lysates. Type of series: binding. To be noted: 25 uM, 15 min, anti-HA immunoprecipitation, western blot. Here is the method:
as §1

Where a name gives a salt, the structure may show the parent alone.

T1 sequence (O43521 whole entry, species assumed): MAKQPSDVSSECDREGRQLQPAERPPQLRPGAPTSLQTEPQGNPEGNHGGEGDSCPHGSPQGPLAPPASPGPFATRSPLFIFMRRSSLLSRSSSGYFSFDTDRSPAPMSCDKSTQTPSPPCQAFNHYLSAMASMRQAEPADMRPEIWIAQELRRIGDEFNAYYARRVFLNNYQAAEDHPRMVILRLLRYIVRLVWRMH

As for `OCCN1CCN(CC(O)COc2ccc3ccccc3c2)CC1` (stereo not shown) [PUMAi, 1-[4-(2-hydroxyethyl)-1-piperazinyl]-3-(2-naphthyloxy)-2-propanol dihydrochloride], the “Apoptosis inhibition of HCT-116” value in series [1] turned out to be 17%. The “inhibition of BIM/MCL-1 interaction” value at BIM/MCL-1 is given as “not of BIM/MCL-1”. In addition, in series [2], the “Apoptosis inhibition of DLD1” value is 39%. The “PUMAi concentration in intestinal mucosa compared to -1.5 hours” value in series [3] (+1 hour of CPT-11 administration) stood at 67%; in series [3] (+6 hours of CPT-11 administration), 30%. For the same molecule, the “PUMAi concentration in plasma over time” value in series [3] (-1.5, +1, +6 hours, compared with intestinal mucosa) was “dropped more quickly in the plasma”. For the same molecule, at PUMA/BCL-xL, the “inhibition of PUMA/BCL-xL interaction” value is recorded as “inhibit interaction of PUMA/BCL-xL”.

(Values after patent US20220125746A1, “METHOD OF PREVENTING OR TREATING TREATMENT-INDUCED GASTROINTESTINAL INJURY” (priority 2019, published 2022).)
